The record followed here is patent publication US20250136633A1, “TELOMERE-TARGETING PHOSPHATIDYL-THIO CONJUGATES” (MAIA BIOTECHNOLOGY, INC., priority 2023, published 2025).

In data set [1] the test system is HT29 Colorectal Carcinoma Cells (CRC). Nature of the data set: In vitro anticancer activity (cytotoxicity) of phosphatidyl-THIO conjugates in HT29 cells. The format is cell-based. The settings on record: for EC50: Homo sapiens, HT 29 CRC cells; for anticancer (cytotoxic) activity, in words: in vitro, comparison among the phosphatidyl conjugates and with the free pharmacophores. The procedure: The in vitro activity of Phosphatidyl-THIO conjugates were tested in HT29 Colorectal Carcinoma Cells (CRC) (Table 2)
Anticancer activity of the one or more phosphatidyl-THIO conjugate compounds disclosed herein, was evaluated in vitro in various cancer cell lines, according to commonly used procedures for assessment of compounds cytotoxicity, as out lined in the following publications: Mender, I., Gryaznov, S., Dikmen, Z. G., Wright, W. E., & Shay, J. W. (2015). Induction of telomere dysfunction mediated by the telomerase substrate precursor 6-thio-2′-deoxyguanosine. Cancer Discovery, 5, 82-95; Mender et al., (2020). Telomere Stress Potentiates STING-Dependent Anti-tumor Immunity. Cancer Cell, 38, 400-411.

Another data set has as its system cancer cells. Nature of the data set: Induction of telomere dysfunction-induced foci (TIF) and micronuclei in cancer cells. The data set is classed as cell-based. The settings on record: treatment of cancer cells; data not shown.

Structures are written as SMILES.

In general, EC50 refers to the concentration giving half of the maximal effect.

In the case of `CCCCCCCCCCCC(=O)OC[C@H](COP(=O)(O)OC[C@H]1O[C@@H](n2cnc3c(=S)[nH]c(N)nc32)C[C@@H]1O)OC(=O)CCCCCCCCCCC` [Compound C12-6SdG, 5′-(1,2-dilauroyl-sn-glycero-3-phospho)-6-thio-2′-deoxyguanosine], the EC50 in data set [1] came to 480 nM.
As for `CCCCCCCC(=O)OC[C@H](COP(=O)(O)OC[C@H]1O[C@@H](n2cnc3c(=S)[nH]c(N)nc32)C[C@@H]1O)OC(=O)CCCCCCC` [Compound C8-6SdG, 5′-(1,2-dioctanoyl-sn-glycero-3-phospho)-6-thio-2′-deoxyguanosine], the EC50 in data set [1] was 350 nM.
The same measure, in the same setting: then `CCCCCCCCCCCC(=O)OC[C@H](COP(=O)(O)OC[C@H]1O[C@@H](n2cnc3c(=S)[nH]c(N)nc32)[C@H](O)[C@@H]1O)OC(=O)CCCCCCCCCCC` [Compound C12-6SriboG, 5′-(1,2-dilauroyl-sn-glycero-3-phospho)-6-thio-guanosine], with 600 nM; and `CCCCCCCC(=O)OC[C@H](COP(=O)(O)OC[C@H]1O[C@@H](n2cnc3c(=S)[nH]c(N)nc32)[C@H](O)[C@@H]1O)OC(=O)CCCCCCC` [Compound C8-6SriboG, 5′-(1,2-dioctanoyl-sn-glycero-3-phospho)-6-thio-guanosine], with 260 nM.
With `CCCCCCCC/C=C\CCCCCCCC(=O)OC[C@H](COP(=O)(O)OC[C@H]1O[C@@H](n2cnc3c(=S)[nH]c(N)nc32)C[C@@H]1O)OC(=O)CCCCCCC/C=C\CCCCCCCC` [C18:01-6SdG, 5′-(1,2-dioleoyl-sn-glycero-3-phospho)-6-thio-2′-deoxyguanosine], in data set [1], the EC50 is 460 nM and the “anticancer (cytotoxic) activity, in words” value is on record as “essentially recovered cytotoxic activity”.
For `CCCCCC(=O)OC[C@H](COP(=O)(O)OC[C@H]1O[C@@H](n2cnc3c(=S)[nH]c(N)nc32)C[C@@H]1O)OC(=O)CCCCC` [Compound C6-6SdG, 5′-(1,2-dihexanoyl-sn-glycero-3-phospho)-6-thio-2′-deoxyguanosine], the EC50 in data set [1] was found to be 80 nM. In the data set on cancer cells, the “induction of telomere dysfunction-induced foci (TIF)-positive cells and micronuclei formation” value is recorded as “efficient induction”.
As for `CCCC(=O)OC[C@H](COP(=O)(O)OC[C@H]1O[C@@H](n2cnc3c(=S)[nH]c(N)nc32)C[C@@H]1O)OC(=O)CCC` [Compound C4-6SdG, 5′-(1,2-dibutyryl-sn-glycero-3-phospho)-6-thio-2′-deoxyguanosine], the EC50 in data set [1] was found to be 260 nM.
As for `CCCCCCCCCCCCCCCCCC(=O)OC[C@H](COP(=O)(O)OC[C@H]1O[C@@H](n2cnc3c(=S)[nH]c(N)nc32)C[C@@H]1O)OC(=O)CCCCCCCCCCCCCCCCC` [Compound C18-6SdG, 5′-(1,2-distearoyl-sn-glycero-3-phospho)-6-thio-2′-deoxyguanosine], in data set [1], the EC50 turned out to be 12400 nM and the “anticancer (cytotoxic) activity, in words” value is “least active”.
Turning to `Nc1nc2c(ncn2[C@H]2C[C@H](O)[C@@H](CO)O2)c(=S)[nH]1` [Compound 6-thio-dG, 6-thio-2′-deoxyguanosine, reference compound], the half-maximal effective concentration (EC50) in data set [1] turned out to be 200 nM.
Still for that read-out and setting: then `CCCCCC(=O)OC[C@H](COP(=O)(O)OC[C@H]1O[C@@H](n2cnc3c(=S)[nH]c(N)nc32)[C@H](O)[C@@H]1O)OC(=O)CCCCC` [Compound C6-6SriboG, 5′-(1,2-dihexanoyl-sn-glycero-3-phospho)-6-thio-guanosine], with 200 nM; and `CCCCCCCCCCCCCC(=O)OC[C@H](COP(=O)(O)OC[C@H]1O[C@@H](n2cnc3c(=S)[nH]c(N)nc32)C[C@@H]1O)OC(=O)CCCCCCCCCCCCC` [Compound C14-6SdG, 5′-(1,2-dimyristoyl-sn-glycero-3-phospho)-6-thio-2′-deoxyguanosine], with 490 nM.
